We go through eight compounds from US11345711B2, “8,9-dihydroimidazo[1,2-a]pyrimido[5,4-e]pyrimidin-5(6H)-ones” (IMPACT THERAPEUTICS (SHANGHAI), INC, priority 2016, dated 2022).

In one test the test system is NCI-H1299 cells. Kind of test: MTT based cell viability assay on NCI-H1299 cells. To be noted: Homo sapiens, read-out: IC50, growth inhibition of NCI-H1299 cells. A digest of the protocol:
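NCI-H1299 cells (1000/well, settled overnight) were exposed for 3 d at 37 °C, 5% CO2, to an eight-point series of 10 μM to 0.01 μM plus DMSO blank, as prepared in DMSO (final DMSO 1‰). MTT (0.5 mg/mL, 4 h) was read at 552/630/690 nm. IC50 came from sigmoidal dose-response fits of survival.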

A further test has as its system LoVo cells. Kind of test: MTT based cell viability assay on LoVo cells. The following applies: Homo sapiens, LoVo, 72 h, 3 d, read-out: IC50, growth inhibition of LoVo cells. A digest of the protocol:
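Inhibition of LoVo proliferation was derived as IC50 from a sigmoidal dose-response fit of cell survival. Readout was MTT (0.5 mg/mL, 4 h) with absorbance at 552/630/690 nm, after 3-day treatment at 37 °C. Eight-point series from 10 μM to 0.01 μM, DMSO control, 1% DMSO final.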

For another test, the target named is Wee1 (h) (Homo sapiens, UniProt P30291). Kind of test: Wee1 kinase (h) detection method, [γ-33P]-ATP filter assay. The test is classed as biochemical.

Read-outs that look alike come from different tables or passages of the source. Where only a bound is given, the exact number is not on record here.

By IC50 is commonly meant the concentration that inhibits the measured activity by half.

Wee1 (h), sequence (P30291 whole entry): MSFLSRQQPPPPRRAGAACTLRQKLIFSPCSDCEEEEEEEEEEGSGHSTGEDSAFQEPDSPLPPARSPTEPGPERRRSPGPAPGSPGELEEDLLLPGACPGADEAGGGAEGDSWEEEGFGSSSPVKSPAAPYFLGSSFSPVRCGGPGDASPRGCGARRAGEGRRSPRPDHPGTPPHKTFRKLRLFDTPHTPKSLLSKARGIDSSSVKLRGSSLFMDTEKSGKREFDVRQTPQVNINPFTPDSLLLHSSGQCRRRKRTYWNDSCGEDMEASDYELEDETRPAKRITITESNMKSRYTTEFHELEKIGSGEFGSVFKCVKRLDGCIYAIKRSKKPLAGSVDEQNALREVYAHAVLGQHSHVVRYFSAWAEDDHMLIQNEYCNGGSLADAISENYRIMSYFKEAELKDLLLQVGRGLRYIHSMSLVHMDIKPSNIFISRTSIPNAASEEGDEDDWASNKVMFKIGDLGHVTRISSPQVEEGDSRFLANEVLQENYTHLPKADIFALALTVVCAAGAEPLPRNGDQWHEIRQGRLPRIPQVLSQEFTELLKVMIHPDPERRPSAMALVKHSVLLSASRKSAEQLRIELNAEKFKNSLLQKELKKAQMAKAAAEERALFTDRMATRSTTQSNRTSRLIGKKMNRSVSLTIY

As to `CN1CCN(c2ccc(Nc3ncc4c(n3)N3CCN=C3N(c3ccncc3)C4=O)cc2)CC1` [Example 99, 6-(Pyridin-4-yl)-2-((4-(4-methylpiperazin-1-yl)phenyl)amino)-8,9-dihydroimidazo[1,2-a]pyrimido[5,4-e]pyrimidin-5(6H)-one], the values for the IC50 in the test on NCI-H1299 cells (NCI-H1299 cells) and in the test with LoVo cells were more than 10000 nM and more than 100000 nM, respectively. Further, the “Inh. (%) of Wee1 kinase enzyme activity” value on Wee1 (h) (C 1 μm compound) is listed as 8%.
As to `CN1CCN(c2ccc(Nc3ncc4c(n3)N3CCN=C3N(c3c(F)cccc3F)C4=O)cc2Cl)CC1` [Example 100, 6-(2,6-Difluorophenyl)-2-((3-chloro-4-(4-methylpiperazin-1-yl)phenyl)amino)-8,9-dihydroimidazo[1,2-a]pyrimido[5,4-e]pyrimidin-5(6H)-one], the IC50 came to 532 nM in the test with NCI-H1299 cells (NCI-H1299 cells) and 172 nM in the test with LoVo cells. Further, the “Inh. (%) of Wee1 kinase enzyme activity” value at Wee1 (h) (C 1 μm compound) came to 87%.
As for `Cc1cc(Nc2ncc3c(n2)N2CCN=C2N(c2c(F)cccc2F)C3=O)cc(C)c1N1CCN(C)CC1` [Example 101, 6-(2,6-Difluorophenyl)-2-((3,5-dimethyl-4-(4-methylpiperazin-1-yl)phenyl)amino)-8,9-dihydroimidazo[1,2-a]pyrimido[5,4-e]pyrimidin-5(6H)-one], the IC50 in the test on NCI-H1299 cells (NCI-H1299, NCI-H1299 cells) turned out to be 214 nM; with LoVo cells it was 95.4 nM. The “Inh. (%) of Wee1 kinase enzyme activity” value is given as 22% on Wee1 (h) (C 0.01 μm compound), 70% on Wee1 (h) (C 0.1 μm compound) and 95% on Wee1 (h) (C 1 μm compound).
For `O=C1c2cnc(Nc3ccc(-n4ccnc4)cc3)nc2N2CCN=C2N1c1c(F)cccc1Cl` [Example 102, 6-(2-Chloro-6-fluorophenyl)-2-((4-(1H-imidazol-1-yl)phenyl)amino)-8,9-dihydroimidazo[1,2-a]pyrimido[5,4-e]pyrimidin-5(6H)-one], the IC50 in the test with NCI-H1299 cells (NCI-H1299 cells) is more than 10000 nM; in the test with LoVo cells it was more than 100000 nM. Further, at Wee1 (h) (C 1 μm compound), the “Inh. (%) of Wee1 kinase enzyme activity” value is recorded as 7%.
In the case of `CN1CCCN(c2ccc(Nc3ncc4c(n3)N3CCN=C3N(c3c(F)cccc3Cl)C4=O)cc2)CC1` [Example 103, 6-(2-Chloro-6-fluorophenyl)-2-((4-(4-methyl-1,4-diazepan-1-yl)phenyl)amino)-8,9-dihydroimidazo[1,2-a]pyrimido[5,4-e]pyrimidin-5(6H)-one], the IC50 with NCI-H1299 cells (NCI-H1299 cells) turned out to be 1050 nM; in the test on LoVo cells it was 678 nM. In addition, the figures for the “Inh. (%) of Wee1 kinase enzyme activity” value on Wee1 (h) (C 0.01 μm compound), on Wee1 (h) (C 0.1 μm compound) and at Wee1 (h) (C 1 μm compound) were 30%, 70% and 92%, respectively.
As to `CN1CCN(Cc2ccc(Nc3ncc4c(n3)N3CCN=C3N(c3c(F)cccc3Cl)C4=O)cc2)CC1` [Example 104, 6-(2-Chloro-6-fluorophenyl)-2-((4-((4-methylpiperazin-1-yl)methyl)phenyl)amino)-8,9-dihydroimidazo[1,2-a]pyrimido[5,4-e]pyrimidin-5(6H)-one], the figures for the IC50 in the test with NCI-H1299 cells (NCI-H1299 cells) and in the test on LoVo cells were 1050 nM and 460 nM, respectively. Moreover, the “Inh. (%) of Wee1 kinase enzyme activity” value on Wee1 (h) (C 1 μm compound) is reported as 93%.
As to `CN(C)CCOc1ccc(Nc2ncc3c(n2)N2CCN=C2N(c2c(F)cccc2Cl)C3=O)cc1` [Example 105, 6-(2-Chloro-6-fluorophenyl)-2-((4-(2-(dimethylamino)ethoxy)phenyl)amino)-8,9-dihydroimidazo[1,2-a]pyrimido[5,4-e]pyrimidin-5(6H)-one], the IC50 with NCI-H1299 cells (NCI-H1299 cells) turned out to be 911 nM; with LoVo cells it was 373 nM. For the same compound, the “Inh. (%) of Wee1 kinase enzyme activity” value is 40% at Wee1 (h) (C 0.01 μm compound), 85% on Wee1 (h) (C 0.1 μm compound) and 97% on Wee1 (h) (C 1 μm compound).
Turning to `CN(C)CCCOc1ccc(Nc2ncc3c(n2)N2CCN=C2N(c2c(F)cccc2Cl)C3=O)cc1` [Example 106, 6-(2-Chloro-6-fluorophenyl)-2-((4-(3-(dimethylamino)propoxy)phenyl)amino)-8,9-dihydroimidazo[1,2-a]pyrimido[5,4-e]pyrimidin-5(6H)-one], the IC50 with NCI-H1299 cells (NCI-H1299 cells) turned out to be 835 nM; in the test with LoVo cells, 330 nM. In addition, the “Inh. (%) of Wee1 kinase enzyme activity” value on Wee1 (h) (C 0.01 μm compound) was found to be 38%; at Wee1 (h) (C 0.1 μm compound) it was 83%; on Wee1 (h) (C 1 μm compound), 94%.
